{"source": "patent US8247211B2", "about": "“Glycopeptide antibiotics” (American Cyanamid Company, priority 2001, dated 2012)", "key": {"Escherichia coli": {"system": "Escherichia coli", "assay": "In vitro antibacterial evaluation: minimum inhibitory concentration (MIC), broth dilution method", "assay_type": "cell-based", "settings": "18 hours at 35° C.", "method_in_brief": "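First, organisms are seeded at 5×10^5 CFU/mL into Muller-Hinton II […]. Next, antibiotic is applied across 64-0.06 μg/mL by broth dilution (NCCLS M7-A2). Finally, the lowest inhibitory concentration is recorded as MIC.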"}, "Enterococcus sp.": {"system": "Enterococcus sp.", "assay": "In vitro antibacterial evaluation: minimum inhibitory concentration (MIC), broth dilution method", "assay_type": "cell-based", "settings": "18 hours at 35° C.", "method_in_brief": "(§1)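 Broth dilution per NCCLS M7-A2 in Muller-Hinton II […], inoculum 5×10^5 CFU/mL, antibiotic tested over 64-0.06 μg/mL. MIC is taken as the lowest concentration that inhibits growth. Panel includes recent clinical isolates resistant to methicillin, penicillin and/or vancomycin.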"}, "Streptococcus sp.": {"system": "Streptococcus sp.", "assay": "In vitro antibacterial evaluation: minimum inhibitory concentration (MIC), broth dilution method", "assay_type": "cell-based", "settings": "18 hours at 35° C.", "method_in_brief": "as §1"}, "Staphylococcus sp.": {"system": "Staphylococcus sp.", "assay": "In vitro antibacterial evaluation: minimum inhibitory concentration (MIC), broth dilution method", "assay_type": "cell-based", "method_in_brief": "as §1"}, "[1]": {"system": "Staphylococcus aureus-SMITH (GC 4543)", "assay": "Acute lethal infection in mice (ED50)", "assay_type": "in vivo", "settings": "female CD-1 mice, intraperitoneal challenge, intravenous dose 30 min. after infection, 7 day survival ratios", "method_in_brief": "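Female CD-1 mice challenged intraperitoneally with a bacterial dose lethal to untreated controls within 24-48 h. Compound given intravenously in saline or 5% dextrose 30 min post-infection, five mice per dose; ED50 from 7-day survival pooled over 3 tests.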"}, "[2]": {"assay": "Anatomic pathology (heart and kidney histopathology) in mice", "assay_type": "in vivo, CD-1 mice", "settings": "20 mg/kg intravenously daily for 9 days, microscopic histopathology on day 10", "method_in_brief": "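Juvenile CD-1 mice (20 days old; 5 vehicle, 5 treated) received glycopeptide antibiotic 20 mg/kg i.v. daily for 9 days. Necropsied tissues formalin-fixed, paraffin-embedded, H&E stained and examined microscopically; findings graded slight to severe versus controls.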"}, "[3]": {"settings": "broth dilution, inoculum 5×10^5 CFU/mL"}}, "data": [{"smiles": "CC(C1CCCCC1)C1NC(=O)CNC(=O)C(CO)NC(=O)C(C(O)C2CNC(=N)N2C2OC(CO)C(O)C(O)C2O)NC(=O)C(C(O)C2CNC(=N)N2)NC(=O)C(Cc2ccc(OC3OC(CO)C(OC4OC5COC6(OC5C(O)C4O)C4CC5CC(C4)CC6C5)C(O)C3O)cc2)NC1=O", "note": "(stereo not drawn) [Example 221, Cyclo[3-cyclohexyl-2-aminobutanoyl-O-[4-O-[4,6-O-(2-adamantylidene)hexopyranosyl]hexopyranosyl]tyrosyl-3-(2-iminoimidazolidin-4-yl)seryl-3-(3-hexopyranosyl-2-iminoimidazolidin-4-yl)serylserylglycyl]]", "values": [{"measurement": "MIC Escherichia coli (ATCC 25922)", "setting": "Escherichia coli; Escherichia coli (ATCC 25922)", "result": 64, "unit": "µg/mL"}, {"measurement": "MIC Escherichia coli (GC 4559)", "setting": "Escherichia coli; Escherichia coli (GC 4559)", "result": 32, "unit": "µg/mL"}, {"measurement": "MIC Escherichia coli (GC 4560)", "setting": "Escherichia coli; Escherichia coli (GC 4560)", "result": 2, "unit": "µg/mL"}, {"measurement": "MIC Enterococcus avium (GC 4558)", "setting": "Enterococcus sp.; Enterococcus avium (GC 4558)", "result": 2, "unit": "µg/mL"}, {"measurement": "MIC Enterococcus faecalis (ATCC 29212)", "setting": "Enterococcus sp.; Enterococcus faecalis (ATCC 29212)", "result": 2, "unit": "µg/mL"}, {"measurement": "MIC Enterococcus faecalis (GC 2242)", "setting": "Enterococcus sp.; Enterococcus faecalis (GC 2242)", "result": 2, "unit": "µg/mL"}, {"measurement": "MIC Enterococcus faecalis (GC 2691)", "setting": "Enterococcus sp.; Enterococcus faecalis (GC 2691)", "result": 2, "unit": "µg/mL"}, {"measurement": "MIC Enterococcus faecalis (GC 3059)", "setting": "Enterococcus sp.; Enterococcus faecalis (GC 3059)", "result": 1, "unit": "µg/mL"}, {"measurement": "MIC Enterococcus faecalis (GC 4552)", "setting": "Enterococcus sp.; Enterococcus faecalis (GC 4552)", "result": 2, "unit": "µg/mL"}, {"measurement": "MIC Enterococcus faecalis (GC 4553)", "setting": "Enterococcus sp.; Enterococcus faecalis (GC 4553)", "result": 2, "unit": "µg/mL"}, {"measurement": "MIC Enterococcus faecalis (GC 4554)", "setting": "Enterococcus sp.; Enterococcus faecalis (GC 4554)", "result": 2, "unit": "µg/mL"}, {"measurement": "MIC Enterococcus faecalis (GC 6189)", "setting": "Enterococcus sp.; Enterococcus faecalis (GC 6189)", "result": 1, "unit": "µg/mL"}, {"measurement": "MIC Enterococcus faecium (GC 2243)", "setting": "Enterococcus sp.; Enterococcus faecium (GC 2243)", "result": 2, "unit": "µg/mL"}, {"measurement": "MIC Enterococcus faecium (GC 4556)", "setting": "Enterococcus sp.; Enterococcus faecium (GC 4556)", "result": 2, "unit": "µg/mL"}, {"measurement": "MIC Enterococcus faecium (GC 4557)", "setting": "Enterococcus sp.; Enterococcus faecium (GC 4557)", "result": 1, "unit": "µg/mL"}, {"measurement": "MIC Enterococcus avium (GC 4558)", "setting": "Enterococcus sp.; [3]", "result": 2, "unit": "µg/mL"}, {"measurement": "MIC Enterococcus faecalis (ATCC 29212)", "setting": "Enterococcus sp.; [3]", "result": 2, "unit": "µg/mL"}, {"measurement": "MIC Enterococcus faecalis (GC 2242)", "setting": "Enterococcus sp.; [3]", "result": 2, "unit": "µg/mL"}, {"measurement": "MIC Enterococcus faecalis (GC 2691)", "setting": "Enterococcus sp.; [3]", "result": 2, "unit": "µg/mL"}, {"measurement": "MIC Enterococcus faecalis (GC 3059)", "setting": "Enterococcus sp.; [3]", "result": 1, "unit": "µg/mL"}, {"measurement": "MIC Enterococcus faecalis (GC 4552)", "setting": "Enterococcus sp.; [3]", "result": 2, "unit": "µg/mL"}, {"measurement": "MIC Enterococcus faecalis (GC 4553)", "setting": "Enterococcus sp.; [3]", "result": 2, "unit": "µg/mL"}, {"measurement": "MIC Enterococcus faecalis (GC 4554)", "setting": "Enterococcus sp.; [3]", "result": 2, "unit": "µg/mL"}, {"measurement": "MIC Enterococcus faecalis (GC 6189)", "setting": "Enterococcus sp.; [3]", "result": 1, "unit": "µg/mL"}, {"measurement": "MIC Enterococcus faecium (GC 2243)", "setting": "Enterococcus sp.; [3]", "result": 2, "unit": "µg/mL"}, {"measurement": "MIC Enterococcus faecium (GC 4556)", "setting": "Enterococcus sp.; [3]", "result": 2, "unit": "µg/mL"}, {"measurement": "MIC Enterococcus faecium (GC 4557)", "setting": "Enterococcus sp.; [3]", "result": 1, "unit": "µg/mL"}, {"measurement": "MIC Streptococcus agalactiae (GC 4564)", "setting": "Streptococcus sp.; Streptococcus agalactiae (GC 4564)", "result": "<0.12", "unit": "µg/mL"}, {"measurement": "MIC Streptococcus pneumoniae (ATCC 6301)", "setting": "Streptococcus sp.; Streptococcus pneumoniae (ATCC 6301)", "result": "<0.12", "unit": "µg/mL"}, {"measurement": "MIC Streptococcus pneumoniae (GC 1894)", "setting": "Streptococcus sp.; Streptococcus pneumoniae (GC 1894)", "result": "<0.12", "unit": "µg/mL"}, {"measurement": "MIC Streptococcus pneumoniae (GC 4565)", "setting": "Streptococcus sp.; Streptococcus pneumoniae (GC 4565)", "result": "<0.12", "unit": "µg/mL"}, {"measurement": "MIC Streptococcus pyogenes (GC 4563)", "setting": "Streptococcus sp.; Streptococcus pyogenes (GC 4563)", "result": "<0.12", "unit": "µg/mL"}, {"measurement": "MIC Streptococcus agalactiae (GC 4564)", "setting": "Streptococcus sp.; [3]", "result": "<0.12", "unit": "µg/mL"}, {"measurement": "MIC Streptococcus pneumoniae (ATCC 6301)", "setting": "Streptococcus sp.; [3]", "result": "<0.12", "unit": "µg/mL"}, {"measurement": "MIC Streptococcus pneumoniae (GC 1894)", "setting": "Streptococcus sp.; [3]", "result": "<0.12", "unit": "µg/mL"}, {"measurement": "MIC Streptococcus pneumoniae (GC 4565)", "setting": "Streptococcus sp.; [3]", "result": "<0.12", "unit": "µg/mL"}, {"measurement": "MIC Streptococcus pyogenes (GC 4563)", "setting": "Streptococcus sp.; [3]", "result": "<0.12", "unit": "µg/mL"}, {"measurement": "MIC Staphylococcus aureus (ATCC 29213)", "setting": "Staphylococcus sp.; strain ATCC 29213", "result": 1, "unit": "µg/mL"}, {"measurement": "MIC Staphylococcus aureus (GC 1131)", "setting": "Staphylococcus sp.; strain GC 1131", "result": 2, "unit": "µg/mL"}, {"measurement": "MIC Staphylococcus aureus (GC 3051)", "setting": "Staphylococcus sp.; strain GC 3051", "result": 2, "unit": "µg/mL"}, {"measurement": "MIC Staphylococcus aureus (GC 3053)", "setting": "Staphylococcus sp.; strain GC 3053", "result": 1, "unit": "µg/mL"}, {"measurement": "MIC Staphylococcus aureus (GC 4541)", "setting": "Staphylococcus sp.; strain GC 4541", "result": 2, "unit": "µg/mL"}, {"measurement": "MIC Staphylococcus aureus (GC 4542)", "setting": "Staphylococcus sp.; strain GC 4542", "result": 2, "unit": "µg/mL"}, {"measurement": "MIC Staphylococcus aureus-SMITH (GC 4543)", "setting": "Staphylococcus sp.; strain GC 4543", "result": 2, "unit": "µg/mL"}, {"measurement": "MIC Staphylococcus aureus (GC 4544)", "setting": "Staphylococcus sp.; strain GC 4544", "result": 2, "unit": "µg/mL"}, {"measurement": "MIC Staphylococcus aureus (GC 4545)", "setting": "Staphylococcus sp.; strain GC 4545", "result": 2, "unit": "µg/mL"}, {"measurement": "MIC Staphylococcus haemolyticus (GC 4546)", "setting": "Staphylococcus sp.; strain GC 4546", "result": 2, "unit": "µg/mL"}, {"measurement": "MIC Coagulase Negative Staphylococcus (GC 4547)", "setting": "Staphylococcus sp.; strain GC 4547", "result": 2, "unit": "µg/mL"}, {"measurement": "MIC Coagulase Negative Staphylococcus (GC 4548)", "setting": "Staphylococcus sp.; strain GC 4548", "result": 1, "unit": "µg/mL"}, {"measurement": "MIC Coagulase Negative Staphylococcus (GC 4549)", "setting": "Staphylococcus sp.; strain GC 4549", "result": 1, "unit": "µg/mL"}, {"measurement": "MIC Coagulase Negative Staphylococcus (GC 4551)", "setting": "Staphylococcus sp.; strain GC 4551", "result": 2, "unit": "µg/mL"}, {"measurement": "median effective dose (ED50), Staphylococcus aureus-SMITH (GC 4543)", "setting": "[1]", "result": 0.03, "unit": "mg/kg"}, {"measurement": "Anatomical Pathology (Day 10), Heart", "setting": "[2]", "result": 0}, {"measurement": "Anatomical Pathology (Day 10), Kidney", "setting": "[2]", "result": 0}]}]}
